Reference: patent US10414811B2, “Protease-resistant lipidated GLP-1 analogs” (MEDIMMUNE LIMITED, priority 2015, dated 2019)
pEC50: −log10 of the molar value. Read-outs that look alike come from different tables or passages of the source. Numbered stars: 1 amine (or outer) side, 2 acyl side, 3 side chain; on linkers, the order of the positions; unused ones are H or OH. Square brackets hold non-standard residues; d marks the D form. Side chains are listed from the residue outwards. Peptide text beside a SMILES is read from it. * marks the point of attachment. γGlu = O=C(O)[C@H](CCC(=O)[*:2])N[*:1]; αMeF = C[C@](N)(Cc1ccccc1)C(=O)O; αMeK = C[C@](N)(CCCCN)C(=O)O; Lauroyl = CCCCCCCCCCCC(=O)*; αMeS = C[C@](N)(CO)C(=O)O; AEEA = NCCOCCOCC(=O)O; Aib = CC(C)(N)C(=O)O

Key:
Neprilysin = target: T1, Neprilysin (Homo sapiens, UniProt P08473); experiment: Proteolytic resistance to neprilysin (% remaining peptide, RP-HPLC AUC); assay type: in vitro ADME; details: 37° C., pH 8.3; for remaining at 0.5 h: t = 30 min; for remaining at 1 h: t = 1 hr; for remaining at 4 h: t = 4 hr; for remaining at 8 h: t = 8 hr; for remaining at 24 h: t = 24 hr, read-out: Percentage remaining peptide (AUC at specified time-point by RP-HPLC) upon incubation with neprilysin, t = 24 hr
T1 construct: purchased R&D Systems 1182-ZNC-010
T1 sequence (P08473 whole entry): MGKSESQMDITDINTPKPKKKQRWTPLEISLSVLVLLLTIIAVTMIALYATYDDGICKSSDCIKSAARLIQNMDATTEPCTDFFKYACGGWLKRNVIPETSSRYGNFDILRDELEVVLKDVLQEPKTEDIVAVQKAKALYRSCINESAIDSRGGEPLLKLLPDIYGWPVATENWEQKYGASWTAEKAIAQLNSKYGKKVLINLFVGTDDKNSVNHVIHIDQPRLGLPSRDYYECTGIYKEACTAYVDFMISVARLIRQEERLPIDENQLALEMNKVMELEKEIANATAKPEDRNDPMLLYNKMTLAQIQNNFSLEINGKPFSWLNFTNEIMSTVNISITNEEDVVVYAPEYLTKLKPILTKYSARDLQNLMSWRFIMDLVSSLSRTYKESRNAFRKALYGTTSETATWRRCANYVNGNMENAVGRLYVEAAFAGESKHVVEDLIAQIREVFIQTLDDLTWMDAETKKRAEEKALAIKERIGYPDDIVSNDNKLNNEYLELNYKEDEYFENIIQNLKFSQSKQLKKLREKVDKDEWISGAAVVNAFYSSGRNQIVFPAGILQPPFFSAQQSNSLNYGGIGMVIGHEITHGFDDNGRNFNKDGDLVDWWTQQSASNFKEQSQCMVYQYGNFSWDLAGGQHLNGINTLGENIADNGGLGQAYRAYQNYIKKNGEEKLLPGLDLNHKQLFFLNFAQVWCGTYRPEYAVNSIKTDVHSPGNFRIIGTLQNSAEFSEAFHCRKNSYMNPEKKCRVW
Protocol: Ratio enzyme (units):peptide (μmoles)˜1:33. […] Ratio enzyme (units):peptide (μmoles)˜1:2.5.
15 μL aliquots (˜15 μg initial peptide) of the peptide-enzyme mixture were periodically withdrawn (t=0, 30 mins, 1 hr, 2 hr, 4 hr, 8 hr, 24 hr) and quenched immediately by addition to an equal volume (15 μL) of 5% TFA (v/v) in 1:1 water/acetonitrile to arrest proteolytic activity. 20 μL aliquots (˜10 μg initial peptide) were analyzed by LC/MS and/or analytical RP-HPLC as follows: LC/MS method: Agilent Polaris C8-A column (4.6×100 mm, 3 micron) eluted with a linear binary gradient of 10-90% MeCN (0.1% TFA v/v) in water (0.1% TFA v/v) over 30 mins at 1.5 mL min-1 at ambient temperature with detection by both UV absorption at 210 nm and ionization using a Waters 3100 mass detector (ESI+ mode). Peptide fragments deriving from enzymatic hydrolysis were identified by molecular weight, allowing location of the site of cleavage. Analytical RP-HPLC method: Agilent Polaris C8-A column (4.6×100 mm, 3 micron) eluted with a linear binary gradient of 10-90% MeCN (0.1% TFA v/v) in water (0.1% TFA v/v) over either 10 or 15 mins at 1.5 mL min^−1 at 40° C. with detection by UV absorption at 210 nm. Manual integration (AUC) allowed estimation of remaining intact peptide over the time course of the experiment.
25 μL aliquots (˜6 μg initial peptide) were analyzed by LC/MS and/or analytical RP-HPLC as follows: LC/MS method: Agilent Polaris C8-A column (4.6×100 mm, 3 micron) eluted with a linear binary gradient of 10-90% MeCN (0.1% TFA v/v) in water (0.1% TFA v/v) over 30 mins at 1.5 mL min^−1 at ambient temperature with detection by both UV absorption at 210 nm and ionization using a Waters 3100 mass detector (ESP mode). Peptide fragments deriving from enzymatic hydrolysis were identified by molecular weight, allowing location of the site of cleavage. Analytical RP-HPLC method: Agilent Polaris C8-A column (4.6×100 mm, 3 micron) eluted with a linear binary gradient of 10-90% MeCN (0.1% TFA v/v) in water (0.1% TFA v/v) over either 10 or 15 mins at 1.5 mL min^−1 at 40° C. with detection by UV absorption at 210 nm. Manual integration (AUC) allowed estimation of remaining intact peptide over the time course of the experiment.

pepsin = target: T2, pepsin (Sus scrofa, UniProt P00791); experiment: Proteolytic resistance to pepsin (% remaining intact peptide, RP-HPLC AUC); assay type: in vitro ADME; details: pig, porcine pepsin, 37° C., pH 2.0, read-out: Percentage remaining intact peptide (AUC by RP-HPLC) upon incubation with pepsin; for remaining at 0.5 h: t = 30 min; for remaining at 1 h: t = 1 hr; for remaining at 2 h: t = 2 hr; for remaining at 4 h: t = 4 hr; for remaining at 8 h: t = 8 hr; for remaining at 24 h: t = 24 hr
T2 construct: purchased Sigma P7012
T2 sequence (P00791 60-385): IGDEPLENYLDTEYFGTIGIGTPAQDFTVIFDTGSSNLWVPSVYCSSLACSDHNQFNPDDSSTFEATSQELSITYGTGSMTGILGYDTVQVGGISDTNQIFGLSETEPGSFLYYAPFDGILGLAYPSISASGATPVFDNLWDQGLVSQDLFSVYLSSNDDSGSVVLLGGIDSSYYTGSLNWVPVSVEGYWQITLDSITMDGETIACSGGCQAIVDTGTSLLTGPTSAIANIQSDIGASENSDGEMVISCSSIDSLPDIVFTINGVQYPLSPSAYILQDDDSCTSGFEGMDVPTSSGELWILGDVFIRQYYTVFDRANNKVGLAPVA
Protocol: Lyophilized porcine […] pepsin (Sigma: P7012) was reconstituted to afford a solution of 200 μg/mL (˜500 units/mL) in assay buffer (0.1 M HCl, pH 2.0) to give the enzyme stock solution. […] Ratio enzyme (units):peptide (μmoles)˜1:6. […] Ratio enzyme (units):peptide (μmoles)˜2:1.
Lyophilized porcine […] pepsin (Sigma: P7012) was reconstituted to 200 μg/mL (˜500 units/mL) in assay buffer (1.0 M HCl, pH 2.0) to give the enzyme stock solution.

trypsin = target: T3, trypsin (Sus scrofa, UniProt P00761); experiment: Proteolytic resistance to trypsin (% remaining intact peptide, RP-HPLC AUC); assay type: in vitro ADME; details: pig, porcine pancreatic trypsin, 37° C., pH 7.8, read-out: Percentage remaining intact peptide (AUC by RP-HPLC) upon incubation with trypsin; for remaining at 0.5 h: t = 30 min; for remaining at 1 h: t = 1 hr; for remaining at 2 h: t = 2 hr; for remaining at 4 h: t = 4 hr; for remaining at 8 h: t = 8 hr
T3 construct: purchased Sigma T7409
T3 sequence (P00761 9-231): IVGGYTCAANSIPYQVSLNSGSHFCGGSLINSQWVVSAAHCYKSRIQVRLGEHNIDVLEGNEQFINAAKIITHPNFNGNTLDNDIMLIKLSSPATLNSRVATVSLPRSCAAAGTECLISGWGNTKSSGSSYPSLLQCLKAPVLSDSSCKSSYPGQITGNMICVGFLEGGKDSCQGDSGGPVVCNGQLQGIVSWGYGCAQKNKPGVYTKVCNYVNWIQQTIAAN
Excerpt: Ratio enzyme (units):peptide (μmoles)˜1:11. […] Ratio enzyme (units):peptide (μmoles)˜1.2:1.

[1] = Proteolytic resistance to fasted-state simulated intestinal fluid (FASSIF/Pancreatin); assay type: in vitro ADME; details: 37° C., read-out: Percentage remaining intact peptide (AUC by RP-HPLC) upon incubation with fasted-state simulated intestinal fluid (FASSIF/P)
Protocol: A fresh suspension of FASSIF/P (Fasted-State Simulated Intestinal Fluid+USP Pancreatin®) was prepared according to that described by Galia, Nicolaides, Hörter, Löbenberg, Reppas and Dressman: Pharm. Res. 15 (1998) 698-705. The resulting preparation is proteolytically equivalent to ˜375 units/mL (375 kU/L) and was used immediately without storage. Peptides for evaluation (1.0 mg, ˜250 nmoles) were initially dissolved in pre-warmed FASSIF without Pancreatin® (200 μL) to which was added pre-warmed fresh FASSIF/Pancreatin® (100 μL) to initiate potential digestion. Following momentary vortexing of the Eppendorf reaction tube the mixture was incubated at 37° C. in a thermostatic waterbath for the duration of the experiment. 25 μL aliquots of the co-incubated peptide-enzyme mixture were periodically withdrawn (t=0, 5 m, 10 m, 15 m, 30 m, 1 h, 2 h) and quenched immediately by addition to a solution of 10% TFA in 1:1 water/acetonitrile (75 μL) to arrest proteolytic activity.

[2] = target: T4, human GLP-1 receptor (GLP-1R) (Homo sapiens, UniProt P43220); experiment: cAMP assay, human GLP-1R cells; assay type: cell-based; details: bis-lipidated peptides; for EC50: mean of n1 and n2, read-out: Primary assay EC50 Mean pM GLP-1R
T4 construct: expressed in transfected cells
T4 sequence (P43220 24-463): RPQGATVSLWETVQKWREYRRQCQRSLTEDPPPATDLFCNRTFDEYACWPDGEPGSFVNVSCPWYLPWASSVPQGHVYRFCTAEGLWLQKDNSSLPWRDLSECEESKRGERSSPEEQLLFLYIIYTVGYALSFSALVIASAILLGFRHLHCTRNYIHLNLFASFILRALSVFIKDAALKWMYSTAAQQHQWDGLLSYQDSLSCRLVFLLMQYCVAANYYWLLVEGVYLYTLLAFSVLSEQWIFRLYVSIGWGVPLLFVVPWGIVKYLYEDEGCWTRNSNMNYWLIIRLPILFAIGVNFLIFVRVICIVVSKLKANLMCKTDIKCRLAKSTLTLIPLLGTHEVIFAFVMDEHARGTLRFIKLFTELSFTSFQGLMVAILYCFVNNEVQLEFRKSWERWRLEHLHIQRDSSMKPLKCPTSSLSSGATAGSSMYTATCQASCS
Outline: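 Peptide-stimulated cAMP measured by two-step HTRF after a 30 min room-temperature incubation with receptor-expressing cells (hGLP-1R, hGIPR at 1×10^5 cells/ml; hGCGR at 2×10^5 cells/ml). Duplicate dilutions; EC50 from 4-parameter logistic fit of % Delta F.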

GLP-1R (INS1e assay) = target: T5, GLP-1R (INS1e assay) (Rattus norvegicus, UniProt P32301); experiment: INS1e assay, cAMP activity at GLP-1R; assay type: cell-based; details: bis-lipidated peptides; for EC50: mean of n1 and n2, read-out: INS1e assay EC50 Mean pM GLP-1R
T5 construct: endogenous in cells; host or cells: INS-1E cells
T5 sequence (P32301 22-463): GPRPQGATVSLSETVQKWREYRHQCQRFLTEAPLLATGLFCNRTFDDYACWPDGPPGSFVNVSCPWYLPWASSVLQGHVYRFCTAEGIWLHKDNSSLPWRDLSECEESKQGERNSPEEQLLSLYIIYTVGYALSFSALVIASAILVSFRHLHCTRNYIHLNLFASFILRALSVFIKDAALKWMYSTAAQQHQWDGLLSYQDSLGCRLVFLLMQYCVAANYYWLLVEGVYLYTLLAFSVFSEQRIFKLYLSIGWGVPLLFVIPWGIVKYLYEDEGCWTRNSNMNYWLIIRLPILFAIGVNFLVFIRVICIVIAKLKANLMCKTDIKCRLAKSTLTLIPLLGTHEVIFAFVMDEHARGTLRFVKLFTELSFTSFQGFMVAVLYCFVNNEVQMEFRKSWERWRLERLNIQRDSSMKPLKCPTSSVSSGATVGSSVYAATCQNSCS
Outline: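 cAMP was quantified by two-step HTRF, using anti-cAMP cryptate donor and cAMP-d2 acceptor, each diluted 1/20 in conjugate and lysis buffer. EC50 values of the synthetic peptides were derived from the cAMP readout.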

[3] = replicate n2, read-out: Primary assay EC50 GLP-1R n2
[4] = replicate n1, read-out: INS1e assay EC50 GLP-1R n1
[5] = replicate n2, read-out: INS1e assay EC50 GLP-1R n2

Row | Structure (SMILES) | remaining at 0.5 h (Neprilysin; recombinant neprilysin) | remaining at 1 h (Neprilysin; recombinant neprilysin) | remaining at 4 h (Neprilysin; recombinant neprilysin) | remaining at 8 h (Neprilysin; recombinant neprilysin) | remaining at 24 h (Neprilysin; recombinant neprilysin) | Percentage remaining peptide (AUC at specified time-point by RP-HPLC) upon incubation with neprilysin, t = 0 (Neprilysin) | remaining at 0.5 h (pepsin) | remaining at 1 h (pepsin) | remaining at 2 h (pepsin) | remaining at 4 h (pepsin) | remaining at 8 h (pepsin) | remaining at 24 h (pepsin) | remaining at 0.5 h (trypsin) | remaining at 1 h (trypsin) | remaining at 2 h (trypsin) | remaining at 4 h (trypsin) | remaining at 8 h (trypsin) | EC50 [2] | pEC50 [2, 3] | EC50 (GLP-1R (INS1e assay)) | further results
1 | CCCCCCCCCCCC(=O)N[C@@H](CCC(=O)NCCOCCOCC(=O)NCCOCCOCC(=O)NCCCC[C@H](NC(=O)[C@H](C)NC(=O)[C@@H](NC(=O)[C@H](Cc1ccccc1)NC(=O)[C@H](CCC(=O)O)NC(=O)[C@](C)(CCCCN)NC(=O)[C@H](C)NC(=O)[C@H](C)NC(=O)[C@H](CCC(=O)O)NC(=O)CNC(=O)[C@H](CCC(=O)O)NC(=O)[C@H](CC(C)C)NC(=O)[C@H](CCCCNC(=O)COCCOCCNC(=O)COCCOCCNC(=O)CC[C@H](NC(=O)CCCCCCCCCCC)C(=O)O)NC(=O)[C@H](CO)NC(=O)[C@](C)(CO)NC(=O)[C@@H](NC(=O)[C@H](CC(=O)O)NC(=O)[C@H](CO)NC(=O)[C@@H](NC(=O)[C@](C)(Cc1ccccc1)NC(=O)[C@H](CO)NC(=O)CNC(=O)[C@H](CCC(=O)O)NC(=O)C(C)(C)NC(=O)[C@@H](N)Cc1c[nH]cn1)[C@@H](C)O)C(C)C)[C@@H](C)CC)C(=O)N[C@H](C(=O)N[C@H](C(=O)N[C@@H](CCC(=O)O)C(=O)NCC(=O)NCC(N)=O)C(C)C)C(C)C)C(=O)O [compound 263] (H-H[Aib]EGS[αMeF]TSDV[αMeS]SK([AEEA-AEEA-γGlu-Lauroyl])LEGEAA[αMeK]EFIAK([AEEA-AEEA-γGlu-Lauroyl])VVEGG-NH2) | 98.3% | 99.5% | 92.3% | 91.2% | 91.9% | 100% | 57.7% | 36% | 14.3% | 5.1% | 1.1% | 0% | 98.9% | 97.2% | 94.8% | 89.8% | 85% | 1.2 pM | 11.84 | 132 pM | remaining at 2 h (Neprilysin; recombinant neprilysin, t = 2 hr): 97.7%; remaining at 5 min, […] ([1]; t = 5 m): 93.1%; remaining at 1 h, […] ([1]; t = 1 h): 35.1%; pEC50 (GLP-1R (INS1e assay); [4]): 9.92; pEC50 (GLP-1R (INS1e assay); [5]): 9.84
2 | CCCCCCCCCCCC(=O)N[C@@H](CCC(=O)NCCOCCOCC(=O)NCCOCCOCC(=O)NCCCC[C@H](NC(=O)[C@H](C)NC(=O)[C@@H](NC(=O)[C@H](Cc1ccccc1)NC(=O)[C@H](CCC(=O)O)NC(=O)[C@](C)(CCCCN)NC(=O)[C@H](C)NC(=O)[C@H](C)NC(=O)[C@H](CCC(=O)O)NC(=O)CNC(=O)[C@H](CCC(=O)O)NC(=O)[C@H](CCCCNC(=O)COCCOCCNC(=O)COCCOCCNC(=O)CC[C@H](NC(=O)CCCCCCCCCCC)C(=O)O)NC(=O)[C@H](Cc1ccc(O)cc1)NC(=O)[C@H](CO)NC(=O)[C@](C)(CO)NC(=O)[C@@H](NC(=O)[C@H](CC(=O)O)NC(=O)[C@H](CO)NC(=O)[C@@H](NC(=O)[C@](C)(Cc1ccccc1)NC(=O)[C@H](CO)NC(=O)CNC(=O)[C@H](CCC(=O)O)NC(=O)C(C)(C)NC(=O)[C@@H](N)Cc1c[nH]cn1)[C@@H](C)O)C(C)C)[C@@H](C)CC)C(=O)N[C@H](C(=O)N[C@H](C(=O)N[C@@H](CCC(=O)O)C(=O)NCC(=O)NCC(N)=O)C(C)C)C(C)C)C(=O)O [compound 269] (H-H[Aib]EGS[αMeF]TSDV[αMeS]SYK([AEEA-AEEA-γGlu-Lauroyl])EGEAA[αMeK]EFIAK([AEEA-AEEA-γGlu-Lauroyl])VVEGG-NH2) | 95.7% | 92.8% | 95.3% | 89.7% | 89.3% | 100% | 74.9% | 55.8% | 38.6% | 22.4% | 13.4% | 0% | 96.8% | 95.2% | 89.9% | 85.2% | 82.9% | 4.6 pM | 11.28 | 212 pM | remaining at 24 h (trypsin; t = 24 hr): 74.7%; pEC50 ([2]; replicate n1, read-out: Primary assay EC50 GLP-1R n1): 11.40; pEC50 (GLP-1R (INS1e assay); [4]): 9.61; pEC50 (GLP-1R (INS1e assay); [5]): 9.74
